According to patent US20040229960A1, “Compositions and methods of administering tubulin binding agents for the treatment of ocular diseases” (priority 2001, published 2004):

Assays:
[1] = Transscleral iontophoretic delivery to retina/choroid (LC/MS/MS); type: in vivo, New Zealand white rabbits; details: for Enhancement: 20 min vs passive 0 mA; for Amount CA4P Delivered / Amount CA4 Delivered / Total Combretastatin Delivered: retina/choroid, mean ± SD; for Amount CA4P Delivered / Amount CA4 Delivered: CA4P 10 mg/ml; for Amount CA4 Delivered: extrapolated beyond quantification range
Description: CA4P is ionizable at physiological pH and therefore is amenable to iontophoretic delivery. The effectiveness of transcleral iontophoretic delivery of CA4P was evaluated using an ocular rabbit ophthalmic applicator (IOMED Inc.,.Salt Lake City, Utah) composed of an 180 ul silicone receptacle shell backed with silver chloride-coated silver foil current distribution component, a connector lead wire, and a single layer of hydrogel-impregnated polyvinyl acetal matrix to which CA4P (10 mg/ml) was administered. The contact surface area of the applicator was 0.54 cm^2. […] Direct current anodal iontophoresis was performed with each applicator at 2,3,and 4 mA for 20 min using an Phoresor II™ PM 700 (IOMED Inc., Salt Lake City, Utah) power supply. Passive iontophoresis (0 mA for 20 min) was used as a control. Following treatment, the animals were euthanized, and eyes were enucleated 30 minutes post-treatment, rinsed with tap water, and frozen at −70 C. Retina and choirodal tissue was dissected from these sample.
CA4P, CA, and the internal standard Diethylstilbestrol (Sigma Chemical Company) were quantified from approximately 100 mg of tissue using chromatography tandem mass spectrometry (“LC/MS/MS”) method. An aliquot of methonal extraction was injected onto a SCIEX APIO 3000 LC/MS/MS apparatus equipped with an HPLC colum. Peak area of the m/z 315→285 product ion of CA43 and m/z 395→79 product ion of CA4P were measured against the peak area of the m/z 267→237 product ion of the internal standard. Quantitation was performed using weighted (1/x) linear least squares regression analyses generated from fortified calibration standards prepared immediately prior to each run. […] These levels represent a several thousand-fold excess over what is considered to be a therapeutically relevant concentration for inhibiting tubulin binding (2-3 uM).

[2] = Primary ocular irritation, topical drops; type: in vivo
Description: The test article, CA4P, was evaluated for primary ocular irritation. A single 0.2 ml dose of CA4P dilution (0.1, 1.0, 10 and 100 mg/ml) was placed in the lower conjunctival sac of the left eye […]. The contralateral eye received buffered saline solution. Ocular reactions were evaluated at 24, 48 and 72 hours after the sample instillation.

[3] = Intraocular irritation following intravitreal injection; type: in vivo, rabbits; details: for Mean cell counts in the vitreous fluid (white blood cells): 0.2 ml intravitreal, about 48 h, <=200 acceptable
Description: The test article, CA4P, was evaluated for the potential to cause intraocular irritation following intravitreal injection in rabbits. Following general anesthesia, a 0.2 ml dose of CA4P was administered to the right eyes of eight rabbits. A 0.2 ml dose of 0.9% sodium chloride USP solution was administered to the left eyes of the rabbits to serve as a negative control. Four different concentrations of CA4P were tested. Each of the four concentrations (0.1 mg/ml, 1.0 mg/ml, 10 mg/ml and 100 mg/ml) were dosed to the right eyes of two rabbits. Approximately 48 hours after the treatment, the eyes were examined with a biomicroscopic slit-lamp and an indirect ophthalmoscope. The scores were recorded and the rabbits were euthanized. Immediately after euthanasia, samples of vitreous fluid were drawn and white blood cell counts were determined with a hemacytometer. Counts less than or equal to 200 cells/mm^3 were considered to be acceptable.

[4] = test system: corneal neovascularization; test: LHP-induced rabbit corneal neovascularization model, IP treatment; type: in vivo, New Zealand rabbits; details: late intervention, 50 mg/kg IP from Day 10 (Group 4)
[5] = test system: oxygen-induced retinal neovascularization; test: Murine model of oxygen-induced retinal neovascularization (ROP); type: in vivo; details: neonatal mouse treated upon removal from hyperoxic conditions
Text: The inner retina of the mammalian eye receives oxygen from the superficial retinal capillary bed. This capillary bed is located beneath the inner limiting membrane which serves as the interface between the inner retina and the outer avascular vitreous. The pathology of retinal neovascularization or retinopathy arises from ischemia-induced growth of neovasculature beyond the retinal inner limiting membrane and into the vitreous, causing severe loss of vision and frequently leading to retinal detachment. […] In this model neonatal mice are exposed to sustained hyperoxic conditions (75% oxygen for 7 days) that inhibit the development of the superficial retinal capillary bed. When a mouse pup is removed from the pure oxygen environment and placed in the relative hypoxia of environmental oxygen, the underdeveloped superficial retinal capillary bed is unable to deliver sufficient quantities of oxygen to the retina. […]
It is expected that the treatment of a neonatal mouse with CA4P immediately upon its removal from hyperoxic conditions would be an effective treatment method for ROP. Retinal neovascularization can be quantified by counting the number chemically stained nuclei of penetrating endothelial cells in retinal tissue section of treated and untreated eyes according to existing methods (Majka et al., Invest. Ophthalmol. Vis. Sci. 2001, 42: 210-15).

[6] = test system: ocular neovascularization; test: LHP-induced ocular neovascularization, intravenous treatment; type: in vivo, rabbit; details: 40 mg/kg i.v. once a day for five days; eyes examined seven days later
Description: To simulate pathogenic ocular angiogenesis, ocular neovascularization was induced by administration of lipid hydroperoxide (LHP) by intra-corneal injection at a dosage of 30 μg to rabbit eyes. Seven to 14 days later, ocular vessels formed in the injected eyes due to LHP insult. The subjects were divided into two groups; those of one group were given combretastatin A4 disodium phosphate by intravenous administration at a dosage of 40 mg/kg once a day for five days, while a vehicle without combretastatin A4 disodium phosphate was administered to the other group by i.v. administration as a dosage of water for the same time period. The eyes of both groups were examined seven days later.

`COc1ccc(/C=C\c2cc(OC)c(OC)c(OC)c2)cc1OP(=O)([O-])[O-].[Na+].[Na+]` [CA4P, combretastatin A4 disodium phosphate] gave an Enhancement ([1]; 2 mA) of 17, an Enhancement ([1]; 3 mA) of 16 and an Enhancement ([1]; 4 mA) of 15. The “Enhancement of delivery of total combretastatin to choroid and retina by iontophoresis” value ([1]; iontophoresis vs passive delivery) was “approximately 15 fold”, the “Amount CA4P Delivered” value ([1]; 0 mA, 20 min (passive)) was under 0.4 ng and the “Amount CA4 Delivered” value ([1]; 0 mA, 20 min (passive)) was 57 ± 37 ng. The “Total Combretastatin Delivered” value ([1]; 0 mA, 20 min (passive)) was 1.6 ± 1.0 nmol/g, the “Amount CA4P Delivered” value ([1]; 2 mA, 20 min) was 1.4 ± 0.5 ng and the “Amount CA4 Delivered” value ([1]; 2 mA, 20 min) was 910 ± 630 ng. For the same molecule, the “Total Combretastatin Delivered” value ([1]; 2 mA, 20 min) was 27 ± 15 nmol/g, the “Amount CA4P Delivered” value ([1]; 3 mA, 20 min) was 3.8 ± 1.5 ng and the “Amount CA4 Delivered” value ([1]; 3 mA, 20 min) was 710 ± 450 ng. For the same molecule, the “Total Combretastatin Delivered” value ([1]; 3 mA, 20 min) was 25 ± 17 nmol/g, the “Amount CA4P Delivered” value ([1]; 4 mA, 20 min) was 7.2 ± 6.3 ng and the “Amount CA4 Delivered” value ([1]; 4 mA, 20 min) was 670 ± 440 ng. For the same molecule, the “Total Combretastatin Delivered” value ([1]; 4 mA, 20 min) was 24 ± 10 nmol/g, the “Irritation (Draize Scores)” value ([2]; Topical, 0-10 mg) was “No Irritation” and the “Macroscopic ocular reaction vs control” value ([2]; all dilutions 0.1-100 mg/ml, single 0.2 ml topical dose, 24-72 h) was “insignificant”. For the same molecule, the “Microscopic ocular irritation vs buffered saline” value ([2]; topical drops 0.1-100 mg/ml) was “not considered an irritant”, the “Mean cell counts in the vitreous fluid (white blood cells)” value (“Mean cell counts in the vitreous fluid” for short) ([3]; 0.1 mg/ml) was 9 cells/mm^3 and the “Irritation on slit-lamp and ophthalmoscope examination” value ([3]; 1 mg/ml intravitreal, 2 rabbits) was “evidence of irritation was noted in one animal”. The “Mean cell counts in the vitreous fluid” value ([3]; 1 mg/ml) was 962 cells/mm^3, the “Mean cell counts in the vitreous fluid” value ([3]; 10 mg/ml) was 10 cells/mg^3 and the “Irritation and inflammation, ophthalmic exams and vitreous white blood cells” value ([3]; 100 mg/ml intravitreal, both animals) was “pronounced irritation and inflammation”. For the same molecule, the “Mean cell counts in the vitreous fluid” value ([3]; 100 mg/ml) was 409 cells/mm^3, the “Irritation (Draize Scores)” value ([3]; Intravitreal, <1 mg) was “No Irritation” and the “Irritation and inflammation, ophthalmic exams and vitreous white blood cells” value ([3]; lower dose levels 0.1, 1.0 and 10 mg/ml intravitreal) was “no clear evidence of irritation or inflammation”. The “Vessel Length on Day 24” value [4] was 1.4 ± 0.46 mm, the “Number of nuclei penetrating the inner limiting membrane” value [5] was “significantly reduced” and the Reduction of vessels [6] was at least 40%.
